Read-outs that look alike come from different tables or passages of the source.
Columns and labels:
in vitro = conditions: human; for Papp B→A at 60 min, 10 µM: Caco-2, pH 7.4; for recovery at 60 min, 10 µM: after 60 min, mean ± SD
Description: (§1) Caco-2 cells (ATCC, Manassas, VA, USA; passage 30–44) were cultured in DMEM (Gibco, New York, USA) containing 4.5 g/L d-glucose, 4 mM L-glutamine and supplemented with 10% FBS (Gibco, Grand Island, NY, USA), 1% minimal essential medium non-essential amino acids (Gibco, Paisley, UK), 100 units/mL penicillin and 100 µg/mL streptomycin (Gibco, Grand Island, NY, USA). Cells were seeded at a density of 4.0 × 10^4 cells/cm^2 on polyester transwell insert membranes (12 mm insert, 0.4 µm pore size; Corning incorporated, Kennebunk, ME, USA). Cells were maintained in a humidified incubator with 5% CO2 at 37 °C for 21 or 22 days in 0.5 mL and 1.5 mL medium in the apical and basolateral compartments, respectively. The medium was refreshed every two or three days and always one day before the permeability assay.
(§2) On the day of the experiment, cells were washed twice with HBSS without phenol red (pH 7.4; Sigma-Aldrich, Steinheim, Germany) supplemented with 0.35 g/L sodium bicarbonate and 25 mM HEPES and they were equilibrated in this supplemented HBSS for 15 min in a humidified incubator with 5% CO2 at 37 °C. […] These stocks were diluted to a final concentration of 10 µM in pre-warmed supplemented HBSS (final DMSO level = 0.1%). After 15 min, the transepithelial electrical resistance (TEER) was measured with an Epithelial Voltohmmeter (World Precision Instruments, Sarasota, USA). Compound transport was studied in two directions: from the apical to the basolateral compartment (A-B) and from the basolateral to the apical compartment (B-A). For A-B experiments, 450 µL of the compound (10 µM) was added to the apical side and 1200 µL supplemented HBSS was added to the basolateral side. A sample of 50 µL was removed immediately from the apical compartment at time point zero. After 15 and 30 min, samples were taken from the basolateral compartment. Cells were kept in the incubator during the experiment. After 60 min, medium from both compartments was sampled, cells were washed twice with supplemented HBSS and were maintained in the incubator. After 15 min, the TEER was measured again to check for epithelial barrier damage due to compound exposure. After this, cells were lysed in RIPA buffer (Thermo Scientific, Rockford, IL, USA). For B-A experiments, 400 µL of supplemented HBSS was added to the apical side and 1250 µL of the compound (10 µM) was added to the basolateral side. A sample of 50 µL was removed immediately from the basolateral compartment at time point zero. After 15 and 30 min, samples were taken from the apical compartment. After 60 min, samples were taken similarly as in A-B experiments. The sampled medium and cell lysates were stored at −20 °C till the day of the liquid chromatography–mass spectrometry (LC–MS/MS) analysis. All experiments were run in duplicate. The compounds were quantified with LC–MS/MS as described in Sect. "LC–MS/MS analysis".
(§3) Before chemical analysis, cell lysates were two times diluted in ice-cold methanol and centrifuged at 15,000 rpm at 4 °C. The supernatant was then injected into the LC–MS/MS system. Sampled buffer from donor compartments was diluted 40 times in buffer and samples from the receiver compartment were analysed undiluted. Standards were prepared in the same assay buffer to quantify the amount of compound in medium samples. For quantification of compounds in cell lysates, standards were prepared in a mixture of 50% RIPA buffer and 50% methanol.
(§4) All data are presented as mean ± SD.
(§5) For the < Tsi > a value of 3.32 h was used (Grandoni et al. [2019]).

Caco-2 cells = assay: in vitro; conditions: scaled from corrected Caco-2 Papp A-B, human
Description: as §1, §2, §3, §4, §5

[1] = In vitro hepatic clearance by human liver S9 (compound depletion); type: in vitro ADME
Description: In vitro intrinsic hepatic clearance (CLint) values of the phenethylamine analogues were determined in experiments with pooled human liver S9 (HLS9; Corning, Woburn, MA, USA and Gibco, USA), by measuring the rate of compound depletion. Stocks of 1 mM PEA compounds were prepared in DMSO and stocks of 10 mg/mL alamethicin were prepared in methanol. The final incubation mixtures consisted of 1 µM of PEA compound (0.1% DMSO) in 100 mM potassium phosphate buffer with 5 mM magnesium chloride (pH 7.4) supplemented with 0.025 mg/mL alamethicin (0.25% methanol) and 0.1–2 mg/mL HLS9. […] Incubation mixtures were first pre-incubated at 37 °C in a shaking incubator at 300 rpm for 5 min. After 5 min, the reaction was initiated by adding a co-factor mix in supplemented buffer with final concentrations of 3 mM nicotinamide adenine dinucleotide phosphate (NADPH; for oxidation, reduction and hydrolysis), 5 mM uridine diphosphate glucuronic acid (UDPGA; for glucuronidation), 0.2 mM adenosine 3’-phosphate 5’-phosphosulfate lithium salt hydrate (PAPS; for sulfation) and 0.2 mM S-(5’-Adenosyl)-L-methionine p-toluenesulfonate salt (SAM; for methylation). The final incubation volume was 100 µL and incubations were performed in 1.5 mL Safe-Lock Eppendorf tubes (Eppendorf) in a shaking incubator (300 rpm) at 37 °C (Eppendorf Thermomixer). Incubations were terminated by adding 100 µL ice-cold acetonitrile after, 0, 2.5, 5, 10, 20, 40 and 60 min. Then, samples were vortexed, put on ice and stored at -20 °C until the day of the LC–MS/MS analysis. Controls of incubation mixtures without HLS9 or mixtures without co-factors were also included. Two independent experiments, both in duplicate, were performed on different days. On the day of the LC–MS/MS analysis, samples were thawed and centrifuged at 15,000 rpm for 10 min. The supernatant was collected in glass insert vials for LC injection (BGB Analytik, Harderwijk, The Netherlands). Details on the methods of the LC–MS/MS analysis are described in Sect. "LC–MS/MS analysis". After determining the PEA (analogue) amount at the different time points, the CLint was calculated. The natural logarithm of compound concentrations was plotted against time and the slope of this curve represented the elimination rate constant k (in 1/min). The half-life (t1/2 in minutes) was calculated by: ln (2)/k (in 1/min). The volume of incubation (V) in µL/mg protein was determined by: 1000 / HLS9 concentration (in mg/mL). Finally, CLint could be calculated by: CLintμL/min/mg protein=VμL/mg protein∗ln2/t1/2min.
The fraction unbound in these in vitro liver clearance incubations was calculated with the method of (Hallifax and Houston [2006]) in which unspecific binding in HLS9 incubations was assumed to be the same as in liver microsomal incubations. The in vitro obtained HLS9 CLint values were corrected for protein binding in the HLS9 incubation and were scaled to a whole liver by using a scaling factor of 121 mg HLS9/g liver (Houston and Galetin [2008]).

ADRα1A = assay: PBK modelling-based reverse dosimetry of in vitro EC50 to ED50, ADRα1A; conditions: predicted human oral ED50 from in vitro EC50 (Pinckaers et al. [2024]) and modelled Cmax plasma venous
Text: (§6) The in vitro effect concentrations (EC50), for activation of the α1A, α1B, α1D, α2A, α2B, β1 and β2 ADR activation and the activation of TAAR1, were obtained from our previous study (Pinckaers et al. [2024]).

ADRα1B = assay: PBK modelling-based reverse dosimetry of in vitro EC50 to ED50, ADRα1B; conditions: predicted human oral ED50 from in vitro EC50 (Pinckaers et al. [2024]) and modelled Cmax plasma venous
Text: as §6

ADRα1D = assay: PBK modelling-based reverse dosimetry of in vitro EC50 to ED50, ADRα1D; conditions: predicted human oral ED50 from in vitro EC50 (Pinckaers et al. [2024]) and modelled Cmax plasma venous
Text: as §6

ADRα2A = assay: PBK modelling-based reverse dosimetry of in vitro EC50 to ED50, ADRα2A; conditions: predicted human oral ED50 from in vitro EC50 (Pinckaers et al. [2024]) and modelled Cmax plasma venous
Text: as §6

ADRβ2 = assay: PBK modelling-based reverse dosimetry of in vitro EC50 to ED50, ADRβ2; conditions: predicted human oral ED50 from in vitro EC50 (Pinckaers et al. [2024]) and modelled Cmax plasma venous
Text: as §6

TAAR1 = assay: PBK modelling-based reverse dosimetry of in vitro EC50 to ED50, TAAR1; set-up: species or system human; conditions: predicted human oral ED50 from in vitro EC50 (Pinckaers et al. [2024]) and modelled Cmax plasma venous
Text: as §6

[2] = Caco-2, pH 7.4, Papp A-B, Caco-2, apical to basolateral, 10 µM, HBSS pH 7.4, mean ± SD, duplicate

| Structure (SMILES) | Papp B→A at 60 min, 10 µM (in vitro) [×10⁻⁶ cm/s] | Papp A→B at 60 min, 10 µM (in vitro; Caco-2, pH 7.4, Papp A-B corrected, corrected for the difference between Papp A-B of metoprolol in this study and in literature) [×10⁻⁶ cm/s] | Papp A→B at 60 min, 10 µM (in vitro; [2]) [×10⁻⁶ cm/s] | recovery at 60 min, 10 µM (in vitro; Caco-2, pH 7.4, Recovery (A-B), Caco-2, A-B experiments) [%] | recovery at 60 min, 10 µM (in vitro; Caco-2, pH 7.4, Recovery (B-A), Caco-2, B-A experiments) [%] | fa (fraction absorbed) (Caco-2 cells) | ka (absorption rate constant) (Caco-2 cells) [h⁻¹] | Predicted intrinsic hepatic metabolic clearance CLmet ([1]; CLint,u scaled to a whole liver, 121 mg HLS9/g liver, human) [L/h] | metabolism in incubations without co-factor mix ([1]; HLS9 without co-factor mix) | k el at 1 µM ([1]; human, pH 7.4) [s⁻¹] | microsomal CLint at 1 µM ([1]; human, s9, pH 7.4, CLint app corrected for unspecific protein (HLS9) binding, read-out: In vitro CLint,u) [µL/min/mg] | microsomal CLint at 1 µM ([1]; human, s9, pH 7.4, human liver S9 with co-factor mix (NADPH, UDPGA, PAPS, SAM), 1 µM, read-out: In vitro CLint app) [µL/min/mg] | ADRα1A ED50 (ADRα1A) [mg/kg bw] | ADRα1B ED50 (ADRα1B) [mg/kg bw] | ADRα1D ED50 (ADRα1D) [mg/kg bw] | ADRα2A ED50 (ADRα2A) | ADRβ2 ED50 (ADRβ2) | TAAR1 ED50 (TAAR1) [mg/kg bw] |
| --- | --- | --- | --- | --- | --- | --- | --- | --- | --- | --- | --- | --- | --- | --- | --- | --- | --- | --- |
| NCC(O)c1ccc(O)cc1 (centres unmarked) [p-Octopamine, octopamine] | 0.117 ± 0.0171 | 0.584 | 0.164 ± 0.0701 | 98.9 ± 1.77 | 109 ± 15 | 0.947 | 0.395 | 75.4 | metabolized in incubations without co-factor mix | 0.000203 | 7.06 | 6.05 | 15.7 | 5.58 | 1.72 | – (compounds with a dash (-) did not activate the receptors in vitro at concentrations ≤ 300 µM) | – (compounds with a dash (-) did not activate the receptors in vitro at concentrations ≤ 300 µM) | 65.8 |
| COCCc1ccc(OCC(O)CNC(C)C)cc1 (centres unmarked) [Metoprolol, metoprolol, reference compound] | 9.25 ± 0.17 | – | 11.2 ± 0.197 | – | – | – | – | – | – | – | – | – | – | – | – | – | – | – |

— publication PMC12085399, “Quantitative in vitro-to-in vivo extrapolation of human adrenergic and trace amine-associated receptor 1 potencies of pre-workout supplement ingredients using physiologically based kinetic modelling-based reverse dosimetry” (Archives of Toxicology, 2025)
